# Source: patent US20080319083A1, “MEDICINE FOR TRANSNASAL ADMINISTRATION” (priority 2006, published 2008)
# Structures can show the parent of a compound that is named as a salt. Where two headings read alike, the source gives them in different places.
# Key:
# [1] = In vivo intraduodenal administration test of milnacipran hydrochloride (Test Example 3); design: species or system Wistar male rats; details: rat
# Procedure: Each rat was fixed in a face-up position on a fixed base, and the left and right jugular veins were exposed to collect blood. The abdominal cavity was incised to take the duodenum out, and the downstream portion of the duodenum was ligated, followed by direct administration of the above-prepared isotonic sodium chloride solution containing milnacipran hydrochloride (dosage 20 mg/kg, concentration 20 mg/mL) to the duodenum from the upstream portion. The time of duodenum administration was defined as 0 minutes, and blood samples were collected using an injection syringe previously treated with heparin with time in an amount of 200 μL per injection. […] The obtained data was analyzed based on the moment analysis to calculate the area under the plasma concentration-time curve (AUC), mean residence time (MRT), and mean absorption time (MAT). The cumulative absorption profile of milnacipran hydrochloride was calculated by the deconvolution method based on kinetic parameters determined from the intravenous administration test for an input function and based on plasma levels after intraduodenal or intranasal administration for an output function.
# in vivo = test: in vivo; design: species or system Wistar male rats; details: male, Wistar, rat, iv, 20 mg/kg
# Procedure: Each rat was fixed in a face-up position on a fixed base, and the left and right jugular veins were exposed to collect blood. The rats underwent an operation of the airway and esophagus to adjust the physiological conditions to the same conditions as those of the intranasal administration test, and the above-prepared isotonic sodium chloride solution containing milnacipran hydrochloride (dosage 20 mg/kg, concentration 20 mg/mL) was administered from the right jugular vein, followed by collection of blood using an injection syringe previously treated with heparin with time in an amount of 200 μL per injection. […] The obtained data was analyzed based on the moment analysis to calculate the area under the plasma concentration-time curve (AUC), mean residence time (MRT), and mean absorption time (MAT). The cumulative absorption profile of milnacipran hydrochloride was calculated by the deconvolution method based on kinetic parameters determined from the intravenous administration test for an input function and based on plasma levels after intraduodenal or intranasal administration for an output function.
# [2] = Evaluation of transfer of milnacipran hydrochloride to central nerve system, CSF concentration (Test Example 4); design: species or system Wistar male rats; details: in vivo
# Procedure: As an indicator of transfer to the central nerve system, the concentration of a drug in a cerebrospinal fluid (CSF) was measured. The same operations and administrations as Test Example 3 (in vivo mucosal absorption experiment) were performed (n=3) for intravenous administration, intraduodenal administration, and intranasal administration. Then, blood was collected with time from the jugular vein, and after a given length of time, CSF was collected. An injection needle previously cut was adhered to a silicon tube to prepare an instrument, the other end of which was connected to a syringe, and after a given length of time following drug administration, a puncture was made ventrally from the top of the back of the head of a rat to a depth of 5 to 6 mm with the top of the injection needle. Then, the syringe was drawn to collect CSF in an amount of about 200 μL in the silicon tube.
# The obtained data was analyzed based on the moment analysis to calculate the area under the cerebrospinal fluid concentration-time curve (AUCCSF). The AUCCSF represents an integrated value of concentrations of milnacipran in CFS, absorbed and transferred to the brain. Transfer of a drug from the general circulation to CSF is controlled by permeation through a blood-brain barrier and is greatly affected by the concentration of the drug in blood. Therefore, in order to consider the effect of permeation through a blood-brain barrier, brain transfer was evaluated by comparing ratios of the concentrations in CSF to the protein unbound drug concentration in plasma at the time of collection of CSF. Meanwhile, the brain transfer ratio (Kpu) was calculated from an area under the CSF concentration-time curve, an area under the plasma concentration-time curve, and a plasma protein unbinding ratio (following Formula 3). A significant test was performed based on the Tukey-Kramer multiple comparison. Note that AUCplasma represents an integrated value of the plasma concentrations of milnacipran absorbed and transferred to blood.
# [3] = In vivo intranasal administration test of milnacipran hydrochloride (Test Example 2); design: species or system Wistar male rats
# Procedure: Each rat was fixed in a face-up position on a fixed base and underwent an operation of the airway and esophagus to adjust the physiological conditions to the same conditions as those of the intravenous administration test, to thereby expose the left and right jugular veins. […] An injection syringe previously treated with heparin was used to collect blood from the right jugular vein over time.
# The cumulative absorption profile of milnacipran hydrochloride was determined by the deconvolution method using kinetic parameters determined from the intravenous administration test as an input function and plasma levels after transnasal administration as an output function.
# [4] = In vivo intravenous administration test of milnacipran hydrochloride (Test Example 2); design: species or system Wistar male rats
# Source text: Each rat was fixed in a face-up position on a fixed base and underwent an operation of the airway and esophagus, to thereby expose the left and right jugular veins. […]
# [5] = Transnasal administration experiment in closed system, plasma pharmacokinetics (Test Example 1)
# Procedure: To 100 μL of plasma was added 300 μL of NH4Cl (pH 9), and the mixture was stirred for 30 seconds. Then, 500 μL of chloroform/2-isopropanol/n-heptane (60/14/26) was added, and the mixture was shaken for 2 minutes and centrifuged (4° C., 15,000 rpm, 5 min).
# The chloroform layer (lower layer) obtained by centrifugation was transferred to another microtube, and the solvent was removed with flowing nitrogen. All the solvents were removed, and the extract was dissolved in 100 μL of a buffer used as a mobile phase for HPLC. Then, the solution was dispensed into a glass tube and injected to HPLC in an amount of 30 μL to measure the concentration of milnacipran hydrochloride.
# The intravenous maximum plasma concentration (Cmax), maximum plasma concentration time (Tmax), area under the plasma concentration-time curve (AUC) and absorption ratio (F) were calculated. The area under the plasma concentration-time curve (AUC) was calculated from the trapezoid formula AUC represents an integrated value of the concentrations of plasma milnacipran absorbed and transferred to blood.
# The obtained data was analyzed based on the nonlinear least-squares method program (algorithm: Damping Gauss-Newton method). AUC, MRT, MAT were derived from moment analysis. Meanwhile, the relative rate of the retention in the nasal cavity was evaluated by Formula (1) below.
# A solution of urethane in isotonic sodium chloride solution (dosage 1.0 g/kg, 25 w/v %) was administered intraperitoneally to Wistar male rats, and the rats were anaesthetized: Each rat was fixed on a fixed base in a face-up position, and then the airway and esophagus surgeries was performed on the rat in according to the method of Hirai et. al (J. Pharm. Sci. 69:1411-1413 (1980)) to thereby expose the left and right jugular veins. The solution of milnacipran hydrochloride in isotonic sodium chloride solution was administered to the left the nasal cavity using a microsyringe, the top of which was attached to a silicone tube (dosage 20 mg/kg, concentration 100 mg/mL). Blood was corrected over time from the right jugular using a syringe previously treated with heparin. The blood samples were collected in an amount of 0.2 mL per injection, just 0 minute before transnasal administration, and 5, 10, 20, 30, 60, 90, 120, 180, 240, 300 and 360 minutes after the transnasal administration respectively. The collected blood samples were immediately centrifuged at 4° C. and 15,000 rpm (17,860 g) for 5 minutes, to thereby yield plasma samples (0.1 mL).
# [6] = Transnasal administration experiment in opened system, plasma pharmacokinetics (Test Example 1); type: in vivo, Wistar male rats
# Source text: AUC, MRT, MAT were derived from moment analysis. […] Each rat was fixed in a face-up position on a fixed base, and the right jugular vein was exposed to insert a catheter. After the nib of the catheter was indwelled in the atrium dextrum, the opened regions of the right jugular vein was sutured together using the medical suture thread with an attached needle (17 mm, angle ½ black nylon 5-0, Matsuda Sutures). After the sufficient recovery period, each rat was used for experiments. To the rats with the jugular vein catheterization, prepared by the above-described “1. […] Blood was collected via catheter over time using an injection syringe previously treated with heparin. […] After recovering from diethylether anesthesia, the rats was placed in gauges.
# [7] = In vivo intranasal administration test of milnacipran hydrochloride (Test Example 3); design: species or system Wistar male rats; details: i.n. 20 mg/kg
# Procedure: Each rat was fixed in a face-up position on a fixed base, and the left and right jugular veins were exposed to collect blood. […] The time of intranasal administration was defined as 0 minutes, and blood samples were collected using an injection syringe previously treated with heparin with time in an amount of 200 μL per injection.
# The obtained data was analyzed based on the moment analysis to calculate the area under the plasma concentration-time curve (AUC), mean residence time (MRT), and mean absorption time (MAT). The cumulative absorption profile of milnacipran hydrochloride was calculated by the deconvolution method based on kinetic parameters determined from the intravenous administration test for an input function and based on plasma levels after intraduodenal or intranasal administration for an output function.
# [8] = male, Wistar, in vivo, 20 mg/kg
# [9] = male, Wistar, rat, iv, 20 mg/kg
# [10] = male, Wistar, rat, in vivo, iv, 20 mg/kg
# [11] = male, Wistar, rat, in vivo, inhaled or intranasal, 20 mg/kg
# [12] = male, Wistar, in vivo, inhaled or intranasal, rat plasma, transnasal 20 mg/kg, opened system
# [13] = male, Wistar, in vivo, inhaled or intranasal, rat plasma
smiles,measurement,setting,value
"CCN(CC)C(=O)C1(c2ccccc2)CC1CN (racemic) [milnacipran hydrochloride, cis-(±)-2-(aminomethyl)-N,N-diethyl-1-phenyl-cyclopropanecarboxyamide]",AUC(0-inf),[1]; [8],7000 ng·h/mL
same,Cmax,[1]; [8],3070 ng/mL
same,MRT inf,[1]; [8],1.89 h
same,Tmax,[1]; [8],1 h
same,F∞,[1]; i.d. 20 mg/kg,70.8%
same,AUC(0-inf),in vivo,9890 ng·h/mL
same,MRT inf,in vivo,1.34 h
same,Cmax,"[2]; male, Wistar, inhaled or intranasal, rat CSF, i.n. 20 mg/kg, read-out: Cmax (maximum CSF concentration)",4020 ng/mL
same,Tmax,"[2]; male, Wistar, inhaled or intranasal, rat CSF, i.n. 20 mg/kg, read-out: Tmax (time-to-maximum CSF concentration) (converted)",0.333 h
same,AUC,"[2]; male, Wistar, inhaled or intranasal, rat plasma, i.n. 20 mg/kg, read-out: AUCPlasma (converted)",8400 ng·h/mL
same,AUC,"[2]; male, Wistar, rat, 20 mg/kg",7000 ng·h/mL
same,Cmax,"[2]; male, Wistar, rat, 20 mg/kg",1010 ng/mL
same,Tmax,"[2]; male, Wistar, rat, 20 mg/kg",1 h
same,ratio of plasma concentration and CSF concentration,"[2]; male, Wistar, rat, 20 mg/kg",significantly increased up to 30 minutes after administration
same,AUC,[2]; [9],9890 ng·h/mL
same,AUCCSF,[2]; [9],13727.9 ng·min/mL
same,Cmax,[2]; [9],2220 ng/mL
same,Tmax,[2]; [9],0.167 h
same,Kp,"[2]; male, Wistar, rat, iv, 20 mg/kg, Kpu (brain transfer ratio)",0.028
same,CSF Cmax in intranasal administration relative to intraduodenal administration,"[2]; rat, 20 mg/kg",four times larger than that in intraduodenal administration
same,CSF Cmax in intranasal administration relative to intravenous administration,"[2]; rat, 20 mg/kg",twice larger than that in intravenous administration
same,ratio of plasma concentration and CSF concentration,"[2]; rat, 20 mg/kg",almost constant
same,AUC(0-inf),"[3]; male, Wistar, in vivo, inhaled or intranasal, rat plasma, i.n. 10 mg/kg",4770 ng·h/mL
same,AUC(0-t),"[3]; male, Wistar, in vivo, inhaled or intranasal, rat plasma, i.n. 10 mg/kg, 0 to 7 hours, read-out: AUC0-7 (converted)",4380 ng·h/mL
same,Tmax,"[3]; male, Wistar, in vivo, rat plasma, i.n. 10 mg/kg",0.333 h
same,Cmax,"[3]; male, Wistar, in vivo, rat plasma, i.n. 10 mg/kg, 50 mg/mL (Example 5)",5270 ng/mL
same,F0-7,"[3]; rat, i.n. 10 mg/kg vs i.v. 20 mg/kg, 0 to 7 hours",90.41%
same,AUC(0-inf),[4]; [10],9680 ng·h/mL
same,AUC(0-t),[4]; [10],9430 ng·h/mL
same,Vd,[4]; [10],0.123 L
same,clearance,[4]; [10],2.69 mL/min
same,B,"[4]; rat plasma, i.v. 20 mg/kg",5580.51 ng/mL
same,t1/2α,"[4]; rat plasma, i.v. 20 mg/kg",6.221 min
same,t1/2β,"[4]; rat plasma, i.v. 20 mg/kg",1.0709 h
same,α,"[4]; rat plasma, i.v. 20 mg/kg",0.1114 min⁻¹
same,β,"[4]; rat plasma, i.v. 20 mg/kg",0.01079 min⁻¹
same,A,"[4]; rat plasma, i.v. 20 mg/kg, two-compartment parameter",7085.09 ng/mL
same,V1,"[4]; rat, i.v. 20 mg/kg",67.74 mL
same,V2,"[4]; rat, i.v. 20 mg/kg",55.64 mL
same,k10,"[4]; rat, i.v. 20 mg/kg",0.0218 min⁻¹
same,k12,"[4]; rat, i.v. 20 mg/kg",0.0453 min⁻¹
same,k21,"[4]; rat, i.v. 20 mg/kg",0.0551 min⁻¹
same,AUC(0-inf),[5]; [11],8400 ng·h/mL
same,Cmax,[5]; [11],5120 ng/mL
same,Tmax,[5]; [11],0.333 h
same,MRT inf,"[5]; male, Wistar, rat, in vivo, inhaled or intranasal, 20 mg/kg, MRT∞, rat plasma, transnasal 20 mg/kg, closed system",1.88 h
same,MRT∞,"[5]; rat plasma, transnasal 20 mg/kg, closed system, listed as Control",1.62 h
same,F∞,"[5]; rat, transnasal 20 mg/kg, closed system, vs i.v. 20 mg/kg",84.9%
same,AUC(0-inf),[6]; [12],6120 ng·h/mL
same,Cmax,[6]; [12],3040 ng/mL
same,MRT inf,[6]; [12],1.77 h
same,Tmax,[6]; [12],0.333 h
same,Fo/Fc (relative rate of the retention in the nasal cavity),"[6]; male, Wistar, rat, in vivo",72.8%
same,F∞,"[6]; rat, transnasal 20 mg/kg, opened system",61.9%
same,AUC(0-inf),[7]; [13],8400 ng·h/mL
same,Cmax,[7]; [13],5120 ng/mL
same,MRT inf,[7]; [13],1.62 h
same,Tmax,[7]; [13],0.333 h
same,F∞,[7]; rat,84.9%
